In patent publication US9963462B2 (priority 2015, dated 2018):

Experiments:
[1] = target: SNAP-hSPR (sepiapterin reductase, SPR) (Homo sapiens, UniProt P35270); assay: biochemical; type: binding; conditions: terbium labelled SNAP-hSPR / SSZ labelled SNAP-EGFP; read-out: hTR-FRET IC50
[2] = system: BH4 levels in SK-N-BE (2) cells; assay: SKN-N-BE (2) cellular assay, BH4 levels by LC-MS; type: cell-based; conditions: Homo sapiens, SKNBE2, read-out: SK-N-BE(2) IC50, SK-N-BE (2) cells, BH4 levels by LC-MS
[3] = system: BH4 production in human peripheral blood mononuclear cells (PBMCs); assay: hPBMC assay, inhibition of BH4 production by LC-MS (anti-CD3/anti-CD28 stimulated); type: cell-based; conditions: PBMC, read-out: hPBMC IC50

Chain of SNAP-hSPR (sepiapterin reductase, SPR) (P35270 whole entry): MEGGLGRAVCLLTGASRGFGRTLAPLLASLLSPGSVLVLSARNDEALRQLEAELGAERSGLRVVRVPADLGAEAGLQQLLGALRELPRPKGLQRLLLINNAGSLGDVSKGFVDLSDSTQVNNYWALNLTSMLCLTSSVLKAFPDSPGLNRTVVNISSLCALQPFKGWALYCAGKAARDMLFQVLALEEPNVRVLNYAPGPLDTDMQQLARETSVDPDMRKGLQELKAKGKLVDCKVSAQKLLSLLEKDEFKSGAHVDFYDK

Cc1c(C(=O)N2CCC(C#N)(c3ccccn3)CC2)cnn1-c1nn2cccc2c(=O)[nH]1 [Q-0952] was tested, and the IC50 [1] was 1 nM, the IC50 [2] was 300 nM and the IC50 [3] was 83 nM.

In the case of Cc1c(C(=O)N2CCC(c3noc(C4CC4)n3)CC2)cnn1-c1nn2cccc2c(=O)[nH]1 [Q-0953], the IC50 [1] is reported as 1 nM, the IC50 [2] is reported as 58 nM and the IC50 [3] is reported as 21 nM.

Cc1c(C(=O)N2CCN(C(C)C(F)(F)F)CC2)cnn1-c1nn2cccc2c(=O)[nH]1 (stereo not drawn) [Q-0956] gave an IC50 [1] of 1 nM, an IC50 [2] of 86 nM and an IC50 [3] of 14 nM.

Cc1c(C(=O)N2CCC(c3nccs3)CC2)cnn1-c1nn2cccc2c(=O)[nH]1 [Q-0969] gave an IC50 [1] of 1 nM, an IC50 [2] of 200 nM and an IC50 [3] of 160 nM.

Compound Cc1c(C(=O)N2CC3CCCC(C2)N3C(=O)OC(C)(C)C)cnn1-c1nn2cccc2c(=O)[nH]1 [Q-0972] has an IC50 [1] of 1 nM, an IC50 [2] of 65 nM and an IC50 [3] of 14 nM.

In the case of COC1(C)CCN(C(=O)c2cnn(-c3nn4cccc4c(=O)[nH]3)c2C)CC1 [Q-0973], the IC50 [1] is reported as 1 nM, the IC50 [2] is reported as 700 nM and the IC50 [3] is reported as 80 nM.

Cc1c(C(=O)N2CCC(S(=O)(=O)C(C)C)CC2)cnn1-c1nn2cccc2c(=O)[nH]1 [Q-0977] showed an IC50 [1] of 1 nM, an IC50 [2] of 500 nM and an IC50 [3] of 86 nM.

C=CCC(C#N)C1CCN(C(=O)c2cnn(-c3nn4cccc4c(=O)[nH]3)c2C)CC1 (stereo not drawn) [Q-0978] was tested, and the IC50 [1] was 1 nM, the IC50 [2] was 81 nM and the IC50 [3] was 59 nM.

Cc1c(C(=O)N2CCC(C#N)(CC(F)(F)F)CC2)cnn1-c1nn2cccc2c(=O)[nH]1 [Q-0986] showed an IC50 [1] of 2 nM, an IC50 [2] of 700 nM and an IC50 [3] of 110 nM.

In the case of Cc1c(C(=O)N2CCCN(CC(F)(F)F)CC2)cnn1-c1nn2cccc2c(=O)[nH]1 [Q-0992], the IC50 [1] is reported as 3 nM, the IC50 [2] is reported as 800 nM and the IC50 [3] is reported as 98 nM.

In the case of Cc1c(C(=O)N2CC(N3CCCC(F)(F)C3)C2)cnn1-c1nn2cccc2c(=O)[nH]1 [Q-0993], the IC50 [1] is reported as 3 nM, the IC50 [2] is reported as 1100 nM and the IC50 [3] is reported as 160 nM.

Cc1c(C(=O)N2CCC(N3CCC(F)(F)CC3)CC2)cnn1-c1nn2cccc2c(=O)[nH]1 [Q-0995] showed an IC50 [1] of 2 nM, an IC50 [2] of 600 nM and an IC50 [3] of 180 nM.

Cc1c(C(=O)N2CCC3(CC2)CC(F)C3)cnn1-c1nn2cccc2c(=O)[nH]1 [Q-0998] was tested, and the IC50 [1] was 1 nM, the IC50 [2] was 300 nM and the IC50 [3] was 92 nM.

Compound Cc1c(C(=O)N2CCC(c3cccnc3F)CC2)cnn1-c1nn2cccc2c(=O)[nH]1 [Q-1003] has an IC50 [1] of 1 nM, an IC50 [2] of 100 nM and an IC50 [3] of 51 nM.

Cc1c(C(=O)N2CCC3(CC2)CC3)nnn1-c1nn2cccc2c(=O)[nH]1 [Q-1005] showed an IC50 [1] of 1 nM, an IC50 [2] of 300 nM and an IC50 [3] of 100 nM.

With Cc1c(C(=O)N2CCN(CC(F)(F)F)CC2)nnn1-c1nn2cccc2c(=O)[nH]1 [Q-1007] the IC50 [1] was 1 nM, the IC50 [2] was 500 nM and the IC50 [3] was 120 nM.

Cc1c(C(=O)N2CCN(CC3CCC3)[C@H](C)C2)cnn1-c1nn2cccc2c(=O)[nH]1 [Q-1020] showed an IC50 [1] of 2 nM, an IC50 [2] of 300 nM and an IC50 [3] of 200 nM.

Compound Cc1c(C(=O)N2CCN(C3CC3)CC2)cnn1-c1nc2c(c(=O)[nH]1)CCC2 [Q-1022] has an IC50 [1] of 2 nM, an IC50 [2] of 100 nM and an IC50 [3] of 41 nM.

Compound Cc1c(C(=O)N2CC3(C2)CC(F)(F)C3)nnn1-c1nn2cccc2c(=O)[nH]1 [Q-1024] has an IC50 [1] of 1 nM, an IC50 [2] of 300 nM and an IC50 [3] of 56 nM.

Cc1c(C(=O)N2C[C@@H]3C[C@H]2CN3Cc2ccccc2)cnn1-c1nn2cccc2c(=O)[nH]1 [Q-1033] showed an IC50 [1] of 8 nM, an IC50 [2] of 400 nM and an IC50 [3] of 260 nM.

Cc1c(C(=O)N2CC=C(C3(C#N)CC3)CC2)cnn1-c1nn2cccc2c(=O)[nH]1 [Q-1034] gave an IC50 [1] of 2 nM, an IC50 [2] of 200 nM and an IC50 [3] of 160 nM.

Cc1c(C(=O)N2CC(F)(c3ccccc3)C2)cnn1-c1nn2cccc2c(=O)[nH]1 [Q-1038] was tested, and the IC50 [1] was 2 nM, the IC50 [2] was 300 nM and the IC50 [3] was 340 nM.

CC[C@H](C#N)C1CCN(C(=O)c2cnn(-c3nc4c(c(=O)[nH]3)CCC4)c2C)CC1 [Q-1041] was tested, and the IC50 [1] was 1 nM, the IC50 [2] was 46 nM and the IC50 [3] was 28 nM.

Work on Cc1c(C(=O)N2CCC(C(=O)N3CCCC3)(C(F)(F)F)CC2)cnn1-c1nn2cccc2c(=O)[nH]1 [Q-1046] yielded an IC50 [1] of 1 nM, an IC50 [2] of 100 nM and an IC50 [3] of 83 nM.

For CCC(C#N)C1(F)CCN(C(=O)c2cnn(-c3nn4cccc4c(=O)[nH]3)c2C)CC1 (stereo not drawn) [Q-1047], the IC50 [1] was 1 nM, the IC50 [2] was 200 nM and the IC50 [3] was 66 nM.

With Cc1c(C(=O)N2CC3C(C2)C3(C)C)cnn1-c1nc2c(c(=O)[nH]1)CCC2 (stereo not drawn) [Q-1048] the IC50 [1] was 1 nM, the IC50 [2] was 200 nM and the IC50 [3] was 50 nM.

For Cc1c(C(=O)N2CCC(C(F)F)CC2)cnn1-c1nc2c(c(=O)[nH]1)CCC2 [Q-1049], the IC50 [1] was 2 nM, the IC50 [2] was 72 nM and the IC50 [3] was 25 nM.

CCC(C1CCN(C(=O)c2cnn(-c3nn4cccc4c(=O)[nH]3)c2C)CC1)C(F)(F)F (stereo not drawn) [Q-1051] showed an IC50 [1] of 1 nM, an IC50 [2] of 53 nM and an IC50 [3] of 27 nM.
